Molecules are shown by their SMILES. ± gives the expanded uncertainty stated by the source.

This note sets out measurements from the NIST ThermoML archive (doi:10.1007/s10765-011-0996-9).

This data set can be described thus: cn = amount concentration of the nth substance listed, in mol/dm3. As to conditions: 101 kPa, Liquid, Capillary tube (Ostwald / Ubbelohde) method, c1 = 2.

What is called viscosity is the internal friction of a fluid under shear. Consider `O=[N+]([O-])[O-].[K+]` [potassium nitrate] + O, for which the viscosity is 0.8985 ± 0.0072 mPa·s (298.15 K); 0.8134 ± 0.0066 mPa·s (303.15 K); 0.7473 ± 0.0061 mPa·s (308.15 K); 0.6857 ± 0.0057 mPa·s (313.15 K); 0.6322 ± 0.0054 mPa·s (318.15 K); 0.5838 ± 0.005 mPa·s (323.15 K).
In the case of `[Cl-].[K+]` [potassium chloride] + O, the viscosity is, setting by setting: (298.15 K) 0.9063 ± 0.0073 mPa·s; (303.15 K) 0.8279 ± 0.0067 mPa·s; (308.15 K) 0.7573 ± 0.0062 mPa·s; (313.15 K) 0.6954 ± 0.0058 mPa·s; (318.15 K) 0.64 ± 0.0054 mPa·s; (323.15 K) 0.5914 ± 0.0051 mPa·s.
